Measurements from patent publication US20250188457A1, “COMPOSITIONS AND METHODS FOR THE TREATMENT OF GLIOBLASTOMA BY INHIBITION OF THE TFPI2-CD51-STAT6 SIGNALING AXIS” (Northwestern University, priority 2023, published 2025).

How the values were obtained:
[1] = test system: 005 GSC and CT2A tumors; assay: Survival of C57BL/6 mice implanted with 005 GSCs or CT2A cells; format: in vivo, mouse; settings: for survival of mice bearing 005 GSC and CT2A tumors, combination with anti-PD1 therapy: anti-PD1 10 mg/kg i.p. on days 11, 14 and 17, MK-0429 30 mg/kg or AS1517499 10 mg/kg i.p. every other day
Experimental: (§1) Female C57BL/6 (#0000664), nude mice (#007850), and B6.12952(C)-Stat6tm1Gru/J mice (STAT6-KO; #005977) at 6 weeks of age were purchased from the Jackson Laboratory. Mice were grouped by 5 animals and maintained in a pathogen-free IVC System (San Diego, CA) for a week before the experiment. All animal experiments were performed with the approval of the Institutional Animal Care and Use Committee (IACUC) at Northwestern University. The intracranial xenograft tumor models were established (Refs. 11, 61; incorporated by reference in their entireties). Ketamine (100 mg/kg) and xylazine (20 mg/kg) were used for anesthetizing mice through intraperitoneal injection. Then a dental drill was used to open a small hole in the skull 1.2 mm anterior and 3.0 mm lateral to the bregma. A total volume of […] cells in FBS-free DMEM was injected into the right caudate nucleus 3 mm below the surface of the brain using a […] Hamilton syringe with an unbeveled 30-gauge needle. Total three doses of 20 mg/kg meloxicam were administrated before and after surgery through subcutaneous injection. After cancer cell implantation, mice were monitored for recording survival. Mice with neurological deficits or moribund appearance were sacrificed. Following the transcardiac perfusion with PBS and 4% paraformaldehyde (PFA), brains were removed and fixed in 4% PFA, and were processed for paraffin-embedded blocks or cryosectioning.

[2] = test system: GSC23 and GSC262 cells; assay: Tumorsphere formation assay (GSC self-renewal); format: cell-based, human; settings: GSC23 and GSC262 with TFPI2 OE plasmid; JNK-IN-8 10 nM, WP1066 20 nM
Experimental: The tumorsphere formation assay was performed (Ref. 79; incorporated by reference in its entirety). GSCs were treated with different concentrations of recombinant TFPI2 protein for 24 hrs with or without inhibition of JNK or STAT3, or modified with TFPI21 KO, knockdown or overexpression. After treatment or genetic modifications, cells were centrifuged at 1500 rpm for 5 min and resuspended in the plain cell culture media without additional supplements. Cells were then seeded into a 96-wells plate at 100 cells/well. The number of tumorspheres in each well was imaged and quantified after 10 days.

[3] = test system: GSC23 and GSC262 cells; assay: CFSE proliferation analysis of GSCs; format: cell-based, human; settings: GSC23 and GSC262 with TFPI2 OE plasmid; JNK-IN-8 10 nM, WP1066 20 nM
Experimental: Cell proliferation was assessed using the CellTrace CFSE Cell Proliferation Kit (Invitrogen, #C34554). 10^6 cells were harvested and incubated with CFSE working solution (1:1000) for 20 min at 37° C. The staining was stopped by adding complete cell culture media. After washing, cells were continuously cultured for 5 days in the dark. At the end of the incubation, cells were collected by spinning down at 1500 rpm for 5 min. The cell pellet was resuspended in cell staining buffer for flow cytometry analysis. The percentage of CFSE positive peaks over the undivided peak (generation 0) was analyzed using the ImageJ software.

[4] = test system: GSC23 and GSC262 cells; assay: Apoptosis analysis of GSCs (Apotracker/PI flow cytometry); format: cell-based, human; settings: GSC23 and GSC262 with TFPI2 OE plasmid; JNK-IN-8 10 nM, WP1066 20 nM
Experimental: Cell apoptosis was evaluated using Apotracker Green (BioLegend, #427402) (Ref. 78; incorporated by reference in its entirety). 10^5 cells were collected and stained with Apotracker (1:10 dilution) in […] cell staining buffer. […] propidium iodide (PI) solution (BioLegend, #421301) was added for labeling late apoptotic and necrotic cells. After washing with PBS twice, FITC and PI signals were analyzed in BD FACSymphony flow cytometer.

[5] = test system: STAT3; assay: Immunoblot for P-STAT3 and STAT3 in GSCs; format: cell-based, human; settings: GSC23 and GSC262, TFPI2 OE or TFPI2 recombinant protein 20 ng/ml; JNK-IN-8 10 nM
Experimental: (§2) The protein expression in cells was determined by western blotting analysis (Ref. 61; incorporated by reference in its entirety). Cells were homogenized in RIPA lysis buffer containing phosphatase/protease cocktail inhibitors (Cell Signaling Technology, #5870). The protein concentration was determined by BCA Protein Assay Kit (Thermo Fisher Scientific, #P123225). Protein solution was mixed with the Leammli sample buffer and heated at 95° C. before loading to SurePAGE gels (GenScript, #M00653). The gels were run at a constant voltage of 80 V and then transferred to 0.2 μm nitrocellulose membrane (Bio-Rad, #1620112) using the Trans-Blot Turbo system (Bio-Rad) with a preprogrammed standard protocol for 30 min. Nitrocellulose membrane was incubated with 5% dry milk to block any unspecific staining. […]

[6] = test system: GSC23 tumor; assay: Survival of nude mice implanted with GSC23 expressing TFPI2 overexpression plasmid; format: in vivo, mouse; settings: 30 mg/kg body weight, i.p., every day, on day 7
Experimental: as §1, with “Following the transcardiac perfusion with PBS and 4% paraformaldehyde (PFA), brains were removed and fixed in 4% PFA, and were processed for paraffin-embedded blocks or cryosectioning.” left out

[7] = test system: JNK; assay: Immunoblot for P-JNK and JNK in GSCs; format: cell-based, human; settings: GSC23 and GSC262, TFPI2 OE or TFPI2 recombinant protein 20 ng/ml; WP1066 20 nM
Experimental: as §2

Row | SMILES | survival of mice implanted with 005 GSCs and CT2A cells, inhibitor alone ([1]; MK-0429 30 mg/kg or AS1517499 10 mg/kg, i.p., every other day, on day 7, Cilengitide dose not given) | survival of mice bearing 005 GSC and CT2A tumors, combination with anti-PD1 therapy [1] | self-renewal effect of increasing cellular TFPI2 in GSCs (tumorspheres) [2] | proliferation effect of increasing cellular TFPI2 in GSCs [3] | apoptotic effect of increasing cellular TFPI2 in GSCs [4] | TFPI2-induced STAT3 activation (P-STAT3) [5] | shortening of survival by TFPI2 overexpression in GSC23 tumor-bearing mice [6] | TFPI2-induced JNK activation (P-JNK) [7]
1 | CC(C)[C@H]1C(=O)N[C@@H](CCCN=C(N)N)C(=O)NCC(=O)N[C@@H](CC(=O)O)C(=O)N[C@H](Cc2ccccc2)C(=O)N1C [Cilengitide] | significantly extended the survival | enhanced the efficacy | – | – | – | – | – | –
2 | Cc1cc(NC(=O)c2cccc(NC(=O)/C=C/CN(C)C)c2)ccc1Nc1nccc(-c2cccnc2)n1 [JNK-IN-8] | – | – | negated | negated | negated | blocked | abolished | –
3 | C[C@H](NC(=O)/C(C#N)=C/c1cccc(Br)n1)c1ccccc1 [WP1066] | – | – | negated | negated | negated | – | abolished | no effect
4 | COc1ccc([C@H](CC(=O)O)N2CCN(CCCc3ccc4c(n3)NCCC4)C2=O)cn1 [MK-0429] | – | synergized | – | – | – | – | – | –
